Source: ChEMBL document CHEMBL4340515, “Dione-thiophene conjugate inhibits proliferation and metastasis of nasopharyngeal carcinoma cells through calcium binding protein-P down-regulation” (Eur J Med Chem, 2019)
The source made the active and inactive calls. No cut-off for these calls is given here.

Legend:
C6661 [1] = assay: Antiproliferation activity against human C6661 cells assessed as reduction in cell viability incubated for 48 hrs by MTT assay; format: functional, cell-based
CNE [2] = assay: Antiproliferation activity against human CNE1 cells assessed as reduction in cell viability incubated for 48 hrs by MTT assay; format: functional, cell-based
C6661 [3] = assay: Down regulation of EGFR protein expression level in human C6661 cells at 1 umol/l incubated for 48 hrs by Western-blot analysis relative to control; format: functional, cell-based
C6661 [4] = assay: Antimetastatic activity in human C6661 cells assessed as reduction in cell invasion after 48 hrs by hematoxylin staining-based transwell invasion assay; format: functional
C6661 [5] = assay: Down regulation of MMP-9 protein expression level in human C6661 cells at 4 to 10 umol/l incubated for 48 hrs by Western-blot analysis relative to control; format: functional, cell-based
C6661 [6] = assay: Down regulation of MMP-2 protein expression level in human C6661 cells at 4 to 10 umol/l incubated for 48 hrs by Western-blot analysis relative to control; format: functional, cell-based
C6661 [7] = assay: Induction of apoptosis in human C6661 cells assessed as increase in apoptotic cells population at 10 umol/l incubated for 48 hrs by annexin V-FITC / propidium iodide staining based flow cytometry; format: functional
C6661 [8] = assay: Induction of apoptosis in human C6661 cells assessed as increase in apoptotic cells population at 2 umol/l incubated for 48 hrs by annexin V-FITC / propidium iodide staining based flow cytometry; format: functional
C6661 [9] = assay: Down regulation of S100P mRNA expression in human C6661 cells at 2 to 10 umol/l incubated for 48 hrs by RT-qPCR analysis relative to control; format: functional, cell-based
C6661 [10] = assay: Antimetastatic activity in human C6661 cells assessed as cell invasion at 4 umol/l after 48 hrs by hematoxylin staining-based transwell invasion assay relative to control; format: functional
C6661 [11] = assay: Down regulation of MMP-2 protein expression level in human C6661 cells at 1 umol/l incubated for 48 hrs by Western-blot analysis relative to control; format: functional, cell-based
C6661 [12] = assay: Antiproliferation activity against human C6661 cells assessed as reduction in cell viability at 1 umol/l incubated for 48 hrs by MTT assay; format: functional, cell-based
[13] = Cytotoxicity against human NP69 cell assessed as reduction in cell viability at 2 to 10 umol/l incubated for 48 hrs by MTT assay
C6661 [14] = assay: Antimetastatic activity in human C6661 cells assessed as cell invasion at 1 umol/l after 48 hrs by hematoxylin staining-based transwell invasion assay relative to control; format: functional
C6661 [15] = assay: Antimetastatic activity in human C6661 cells assessed as cell invasion at 6 umol/l after 48 hrs by hematoxylin staining-based transwell invasion assay relative to control; format: functional
C6661 [16] = assay: Induction of apoptosis in human C6661 cells assessed as increase in apoptotic cells population at 6 umol/l incubated for 48 hrs by annexin V-FITC / propidium iodide staining based flow cytometry; format: functional
C6661 [17] = assay: Down regulation of RAGE protein expression level in human C6661 cells at 1 umol/l incubated for 48 hrs by Western-blot analysis relative to control; format: functional, cell-based
CNE [18] = assay: Antiproliferation activity against human CNE1 cells assessed as reduction in cell viability at 2 to 10 umol/l incubated for 48 hrs by MTT assay relative to control; format: functional, cell-based
CNE [19] = assay: Antiproliferation activity against human CNE1 cells assessed as reduction in cell viability at 1 umol/l incubated for 48 hrs by MTT assay; format: functional, cell-based
C6661 [20] = assay: Antiproliferation activity against human C6661 cells assessed as reduction in cell viability at 2 to 10 umol/l incubated for 48 hrs by MTT assay relative to control; format: functional, cell-based
C6661 [21] = assay: Down regulation of RAGE protein expression level in human C6661 cells at 4 to 10 umol/l incubated for 48 hrs by Western-blot analysis relative to control; format: functional, cell-based
C6661 [22] = assay: Down regulation of EGFR protein expression level in human C6661 cells at 4 to 10 umol/l incubated for 48 hrs by Western-blot analysis relative to control; format: functional, cell-based
C6661 [23] = assay: Antimetastatic activity in human C6661 cells assessed as cell invasion at 2 umol/l after 48 hrs by hematoxylin staining-based transwell invasion assay relative to control; format: functional
C6661 [24] = assay: Down regulation of MMP-9 protein expression level in human C6661 cells at 1 umol/l incubated for 48 hrs by Western-blot analysis relative to control; format: functional, cell-based
C6661 [25] = assay: Induction of apoptosis in human C6661 cells assessed as enhanced early apoptotic cells population at 1 to 10 umol/l incubated for 48 hrs by annexin V-FITC / propidium iodide staining based flow cytometry; format: functional
C6661 [26] = assay: Down regulation of CD44 protein expression level in human C6661 cells at 1 umol/l incubated for 48 hrs by Western-blot analysis relative to control; format: functional, cell-based
C6661 [27] = assay: Induction of apoptosis in human C6661 cells assessed as increase in apoptotic cells population at 4 umol/l incubated for 48 hrs by annexin V-FITC / propidium iodide staining based flow cytometry; format: functional
C6661 [28] = assay: Antimetastatic activity in human C6661 cells assessed as cell invasion at 10 umol/l after 48 hrs by hematoxylin staining-based transwell invasion assay relative to control; format: functional
C6661 [29] = assay: Down regulation of S100P protein expression level in human C6661 cells at 2 to 10 umol/l incubated for 48 hrs by Western-blot analysis relative to control; format: functional, cell-based
C6661 [30] = assay: Antiproliferation activity against human C6661 cells assessed as reduction in cell viability at 10 umol/l incubated for 48 hrs by MTT assay relative to control; format: functional
C6661 [31] = assay: Down regulation of CD44 protein expression level in human C6661 cells at 4 to 10 umol/l incubated for 48 hrs by Western-blot analysis relative to control; format: functional, cell-based
CNE [32] = assay: Antiproliferation activity against human CNE1 cells assessed as reduction in cell viability at 10 umol/l incubated for 48 hrs by MTT assay; format: functional

## O=C1CCCCC(=O)C1=CSc1ccccc1Cl
C6661 [1]
  Activity: Active
CNE [2]
  Activity: Active

## N#Cc1ccccc1SC=C1C(=O)CCCCC1=O
C6661 [1]
  Activity: Active
CNE [2]
  Activity: Active

## O=C1CCCCC(=O)C1=CSc1ccccc1Br
C6661 [1]
  Activity: Active
CNE [2]
  Activity: Active

## O=C1CCCCC(=O)C1=CSc1ccccc1C(F)(F)F
C6661 [3]
  Activity: inactive
C6661 [4]
  Activity: Dose-dependent effect
C6661 [5]
  Activity: Active
C6661 [6]
  Activity: Active
C6661 [7]
  Activity: 61.78%
C6661 [8]
  Activity: 10.54%
C6661 [9]
  Activity: Dose-dependent effect
C6661 [10]
  Activity: 63%
C6661 [11]
  Activity: inactive
C6661 [1]
  Activity: Active
C6661 [12]
  Activity: inactive
[13]
  Activity: Non-Toxic
C6661 [14]
  Activity: 99%
C6661 [15]
  Activity: 22%
C6661 [16]
  Activity: 46.24%
C6661 [17]
  Activity: inactive
CNE [2]
  Activity: Active
CNE [18]
  Activity: Active
CNE [19]
  Activity: inactive
C6661 [20]
  Activity: Active
C6661 [21]
  Activity: Active
C6661 [22]
  Activity: Active
C6661 [23]
  Activity: 89%
C6661 [24]
  Activity: inactive
C6661 [25]
  Activity: 2.76 - 69.43%
C6661 [26]
  Activity: inactive
C6661 [27]
  Activity: 23.45%
C6661 [28]
  Activity: 11%
C6661 [29]
  Activity: Dose-dependent effect
C6661 [30]
  Activity: 26%
C6661 [31]
  Activity: Active
CNE [32]
  Activity: 24%

## O=C1CCCCC(=O)C1=CSc1ccccc1F
C6661 [1]
  Activity: Active
CNE [2]
  Activity: Active

## O=C1CCCCC(=O)C1=CSc1ccccc1[N+](=O)[O-]
C6661 [1]
  Activity: Active
CNE [2]
  Activity: Active

## Cc1ncccc1SC=C1C(=O)CCCCC1=O
C6661 [1]
  Activity: Active
CNE [2]
  Activity: Active
